Measurements reported in US11905231B1, “Solid forms, salts and polymorphs of anti-fibrotic compounds” (Certa Therapeutics Pty Ltd, priority 2023, dated 2024).
In brackets after ≈: the same amount, converted by molar mass. Like-named read-outs stand apart in the source and are kept apart here.

Legend:
[1] = Thermogravimetric Analysis (TGA) weight loss; type: physicochemical; conditions: for Total weight loss by TGA: from r.t. to 350° C. (or to decomposition if lower); for Weight loss (TGA): when heated from about 25° C. to about 120° C.
[2] = Oral pharmacokinetic study in Sprague-Dawley rats; conditions: rat; for F (fraction absorbed, bioavailability): based on AUCInf
Method: Bioavailability is determined by the equation AUC=F·D/CLT, wherein AUC is the area under the plot of plasma concentration, F is the absolute bioavailability, D is the dose, and CLT is the total clearance.
The rats received a single oral dose of 20 mg/kg body weight (b.w.). The doses were prepared as a 2.0 mg/mL suspension in a vehicle of 20 mM Na2HPO4 buffer containing 5% (v/v) DMSO, 0.4% (v/v) 1M NaOH and 0.4% (v/v) Tween 80 and a dose volume of 10 mL/kg b.w.
Pharmacokinetic analysis was performed on the average plasma concentration for each time point.

[3] = physchem; conditions: 37 °C, thermodynamic from solid
Method: The term “FaSSIF media” refers to Fasted State Simulated Intestinal Fluid media prepared using FaSSIF powder and buffer concentrate obtained from the commercial source Biorelevant (London, UK, biorelevant.com). The FaSSIF powder contains sodium taurocholate, lecithin, sodium chloride, monobasic sodium phosphate and sodium hydroxide. The FaSSIF media is prepared as described at https://biorelevant.com/learning_center/what-is-fassif/. Briefly the pH6.5 buffer containing 0.42 g of NaOH, 3.95 g of NaH2PO4·H2O and 6.19 g of NaCl was dissolved in 0.9 L of purified water and the pH of the solution was adjusted to 6.5 using sodium hydroxide 1N or hydrochloric acid 1N and made up to volume (1 L) with purified water at room temperature. Dissolve 2.24 g of the FaSSIF powder in 0.5 L of the pH6.5 buffer, stirring until the powder is completely dissolved, and then make up to volume (1 L) with buffer at room temperature.
The samples were stirred using a magnetic stirrer at 37° C. […] The samples were filtered via centrifugation (12,000 rpm, 5 min). The supernatant was diluted (2×) with HPLC grade solvent and analyzed by HPLC.
HPLC gradient was as follows:
The pH 1.2, pH 4.5, and pH 6.8 media were prepared as standard aqueous buffered solutions following USP <39>.
As used herein, the term “FaSSIF media” means Fasted Stated Simulated Intestinal Fluid media prepared according to the method known in the art.

[4] = Dynamic Vapor Sorption (DVS) hygroscopicity; conditions: at 80% RH, 25° C., measured during 0% RH to 95% RH increase
Source text: The change in water content is recited as a % change in mass of the starting sample and all such water sorption (DVS) values recited herein will be understood to explicitly include numerical values within a +/−0.2% variance.
The humidity is held constant at 30% RH until the mass change of the sample reaches equilibrium, as determined by the rate of change of weight being 0.01%/minute or less. The humidity is then changed to the next step value and the consequent mass change measured, and so on.
The hygroscopicity values recited herein refer to total water gain since the start of the experiment only and so may not necessarily be equivalent to the actual total water content of the sample.

[5] = single oral dose 20 mg/kg, 0.5 h post dose
[6] = single oral dose 20 mg/kg, 1 h post dose
[7] = single oral dose 20 mg/kg, 2 h post dose
[8] = single oral dose 20 mg/kg, 4 h post dose
[9] = single oral dose 20 mg/kg, 8 h post dose
[10] = single oral dose 20 mg/kg, 24 h post dose
[11] = single oral dose 20 mg/kg, plasma
[12] = single oral dose 20 mg/kg, plasma, mean
[13] = single oral dose 20 mg/kg, plasma, extrapolated area under the curve
[14] = Sprague-Dawley, in vivo, po, 20 mg/kg
[15] = FaSSIF (pH 7.5), pH 7.5, fassif
[16] = FeSSIF (pH 7.8), pH 7.8, fessif
[17] = pH 1.2 aqueous buffer, pH 1.2, simulated gastric fluid

SMILES: C#CCOc1ccc(/C=C/C(=O)Nc2ccccc2C(=O)O)cc1OC.N [Ammonium salt]
- Weight loss by TGA ([1]; from 0° C. to 100° C.): 7.07% from 0 °C to
- Weight loss by TGA ([1]; from 100° C. to 170° C.): 4.48% from 100 °C to
- Weight loss by TGA ([1]; from r.t. to 120° C.): 8.94% from r.t. to
- Total weight loss by TGA [1]: 11.55% total weight
- Maximum plasma concentration (Cmax) compared to the other tested compounds ([2]; single oral dose 20 mg/kg): highest maximum plasma concentration
- Mean concentration (plasma) [2, 5]: 32700 ng/mL
- Mean concentration (plasma) [2, 6]: 44033 ng/mL
- Mean concentration (plasma) [2, 7]: 35033 ng/mL
- Mean concentration (plasma) [2, 8]: 20833 ng/mL
- Mean concentration (plasma) [2, 9]: 14400 ng/mL
- Mean concentration (plasma) [2, 10]: 575 ng/mL
- AUCExtr [2, 11]: 0.932%
- AUClast [2, 12]: 313.832 µg·h/mL
- Cmax [2, 12]: 44033 ng/mL
- t1/2 [2, 12]: 3.62 h
- tmax [2, 12]: 1.00 h
- AUCInf [2, 13]: 317.034 µg·h/mL
- F (fraction absorbed, bioavailability) ([2]; single oral dose 20 mg/kg): 64%

SMILES: C#CCOc1ccc(/C=C/C(=O)Nc2ccccc2C(=O)O)cc1OC [Free form]
- Weight loss by TGA ([1]; from r.t. to 120° C.): 1.83% from r.t. to
- Total weight loss by TGA [1]: 1.83% total weight
- AUCExtr [2, 14]: 2.10%
- AUCInf [2, 14]: 170.145 µg·h/mL
- AUClast [2, 14]: 166.522 µg·h/mL
- bioavailability [2, 14]: 35%
- half-life [2, 14]: 4.23 h
- tmax [2, 14]: 3.67 h
- Mean concentration (plasma) ([2]; Sprague-Dawley, in vivo, po, 20 mg/kg, 0.5 h): 9947 ng/mL
- Mean concentration (plasma) ([2]; Sprague-Dawley, in vivo, po, 20 mg/kg, 1 h): 16427 ng/mL
- Mean concentration (plasma) ([2]; Sprague-Dawley, in vivo, po, 20 mg/kg, 2 h): 13217 ng/mL
- Mean concentration (plasma) ([2]; Sprague-Dawley, in vivo, po, 20 mg/kg, 4 h): 11693 ng/mL
- Mean concentration (plasma) ([2]; Sprague-Dawley, in vivo, po, 20 mg/kg, 8 h): 8990 ng/mL
- Mean concentration (plasma) ([2]; Sprague-Dawley, in vivo, po, 20 mg/kg, 24 h): 586 ng/mL
- solubility at 1 h [3, 15]: 1340 µg/mL (≈ 3810 µM)
- solubility at 24 h [3, 15]: 1500 µg/mL (≈ 4270 µM)
- solubility at 1 h ([3]; FaSSIF, pH 6.5, fassif): 312 µg/mL (≈ 888 µM)
- solubility at 24 h ([3]; FaSSIF, pH 6.5, fassif): 103 µg/mL (≈ 293 µM)
- solubility at 1 h [3, 16]: 806 µg/mL (≈ 2290 µM)
- solubility at 24 h [3, 16]: 400 µg/mL (≈ 1140 µM)
- solubility at 1 h ([3]; FeSSIF, pH 5, fessif): 39 µg/mL (≈ 111 µM)
- solubility at 24 h ([3]; FeSSIF, pH 5, fessif): 18 µg/mL (≈ 51.2 µM)
- solubility at 1 h [3, 17]: 10 µg/mL (≈ 28.5 µM)
- solubility at 24 h [3, 17]: 4 µg/mL (≈ 11.4 µM)
- solubility at 1 h ([3]; pH 4.5 aqueous buffer): 35 µg/mL (≈ 99.6 µM)
- solubility at 24 h ([3]; pH 4.5 aqueous buffer): 6 µg/mL (≈ 17.1 µM)
- solubility at 1 h ([3]; pH 6.8 aqueous buffer): 394 µg/mL (≈ 1120 µM)
- solubility at 24 h ([3]; pH 6.8 aqueous buffer): 51 µg/mL (≈ 145 µM)

SMILES: C#CCOc1ccc(/C=C/C(=O)Nc2ccccc2C(=O)[O-])cc1OC.[K+] [Potassium salt]
- Weight loss by TGA ([1]; from 25° C. to 57° C.): 2.02% from 25 °C to
- Weight loss by TGA ([1]; from 57° C. to 140° C.): 4.40% from 57 °C to
- Weight loss by TGA ([1]; from r.t. to 120° C.): 5.34% from r.t. to
- Total weight loss by TGA [1]: 6.42% total weight
- Mean concentration (plasma) [2, 5]: 24600 ng/mL
- Mean concentration (plasma) [2, 6]: 34467 ng/mL
- Mean concentration (plasma) [2, 7]: 27200 ng/mL
- Mean concentration (plasma) [2, 8]: 17000 ng/mL
- Mean concentration (plasma) [2, 9]: 10850 ng/mL
- Mean concentration (plasma) [2, 10]: 687 ng/mL
- AUCExtr [2, 11]: 1.68%
- AUClast [2, 12]: 244.45 µg·h/mL
- Cmax [2, 12]: 34733 ng/mL
- t1/2 [2, 12]: 4.21 h
- tmax [2, 12]: 1.33 h
- AUCInf [2, 13]: 248.674 µg·h/mL
- F (fraction absorbed, bioavailability) ([2]; single oral dose 20 mg/kg): 51%
- 1 h Solubility (FaSSIF (pH 7.5), 37° C., 1 h): >5140 µg/mL
- 24 h Solubility (FaSSIF (pH 7.5), 37° C., 24 h): >5140 µg/mL
- 1 h Solubility (FaSSIF, 37° C., 1 h): 218 µg/mL
- 24 h Solubility (FaSSIF, 37° C., 24 h): 211 µg/mL
- 1 h Solubility (FeSSIF (pH 7.8), 37° C., 1 h): >5140 µg/mL
- 24 h Solubility (FeSSIF (pH 7.8), 37° C., 24 h): >5140 µg/mL
- 1 h Solubility (FeSSIF, 37° C., 1 h): 23 µg/mL
- 24 h Solubility (FeSSIF, 37° C., 24 h): 25 µg/mL
- 1 h Solubility (pH 1.2 medium, 37° C., 1 h): 18 µg/mL
- 24 h Solubility (pH 1.2 medium, 37° C., 24 h): 7 µg/mL
- 1 h Solubility (pH 4.5 medium, 37° C., 1 h): 30 µg/mL
- 24 h Solubility (pH 4.5 medium, 37° C., 24 h): 6 µg/mL
- 1 h Solubility (pH 6.8 medium, 37° C., 1 h): 111 µg/mL
- 24 h Solubility (pH 6.8 medium, 37° C., 24 h): 78 µg/mL
- Hygroscopicity by DVS [4]: 6.05%

SMILES: C#CCOc1ccc(/C=C/C(=O)Nc2ccccc2C(=O)O)cc1OC.NC(CO)(CO)CO [Tris salt]
- Weight loss by TGA ([1]; from 0° C. to 120° C.): 0.65% from 0 °C to
- Weight loss by TGA ([1]; from 120° C. to 150° C.): 0.20% from 120 °C to
- Weight loss by TGA ([1]; from r.t. to 120° C.): 0.65% from r.t. to
- Total weight loss by TGA [1]: 0.85% total weight
- Weight loss (TGA) [1]: 0.65%
- Mean concentration (plasma) [2, 5]: 21300 ng/mL
- Mean concentration (plasma) [2, 6]: 36833 ng/mL
- Mean concentration (plasma) [2, 7]: 31067 ng/mL
- Mean concentration (plasma) [2, 8]: 14467 ng/mL
- Mean concentration (plasma) [2, 9]: 11317 ng/mL
- Mean concentration (plasma) [2, 10]: 650 ng/mL
- AUCExtr [2, 11]: 1.49%
- AUClast [2, 12]: 246.642 µg·h/mL
- Cmax [2, 12]: 37367 ng/mL
- t1/2 [2, 12]: 4.02 h
- tmax [2, 12]: 1.33 h
- AUCInf [2, 13]: 250.596 µg·h/mL
- F (fraction absorbed, bioavailability) ([2]; single oral dose 20 mg/kg): 51%
- 1 h Solubility (pH 1.2): 1 µg/mL
- 24 h Solubility (pH 1.2): 4 µg/mL
- 1 h Solubility (pH 4.5): <1 µg/mL
- 24 h Solubility (pH 4.5): 2 µg/mL
- 1 h Solubility (pH 6.8): 88 µg/mL
- 24 h Solubility (pH 6.8): 67 µg/mL
- 1 h Solubility (pH 7.5): >5030 µg/mL
- 24 h Solubility (pH 7.5): 4641 µg/mL
- 1 h Solubility (pH 7.8): >5100 µg/mL
- 24 h Solubility (pH 7.8): 4212 µg/mL
- Hygroscopicity by DVS [4]: 1.61%
- Hygroscopicity by DVS ([4]; listed as tris(hydroxymethyl)aminomethane (Tris)): 1.61%

SMILES: C#CCOc1ccc(/C=C/C(=O)Nc2ccccc2C(=O)O)cc1OC.CC(C)(C)N [tert-Butylamine (TBA) salt]
- Weight loss by TGA ([1]; from 25° C. to 120° C.): 0.94% from 25 °C to
- Weight loss by TGA ([1]; from 120° C. to 190° C.): 6.91% from 120 °C to
- Weight loss by TGA ([1]; from r.t. to 120° C.): 0.94% from r.t. to
- Total weight loss by TGA [1]: 7.85% total weight
- Weight loss (TGA) [1]: 0.94%
- Weight loss (TGA) ([1]; listed as tert-butylamine salt): about 0.94%
- Mean concentration (plasma) [2, 5]: 18080 ng/mL
- Mean concentration (plasma) [2, 6]: 26967 ng/mL
- Mean concentration (plasma) [2, 7]: 29167 ng/mL
- Mean concentration (plasma) [2, 8]: 17133 ng/mL
- Mean concentration (plasma) [2, 9]: 15433 ng/mL
- Mean concentration (plasma) [2, 10]: 918 ng/mL
- AUCExtr [2, 11]: 1.83%
- AUClast [2, 12]: 287.306 µg·h/mL
- Cmax [2, 12]: 32000 ng/mL
- t1/2 [2, 12]: 4.18 h
- tmax [2, 12]: 1.67 h
- AUCInf [2, 13]: 292.817 µg·h/mL
- F (fraction absorbed, bioavailability) ([2]; single oral dose 20 mg/kg): 59%
- Hygroscopicity by DVS [4]: 1.07%
- Hygroscopicity by DVS ([4]; listed as tert-butylamine (TBA)): 1.07%
- Hygroscopicity by DVS ([4]; listed as tert-butylamine salt): about 1.07%
